The text below walks through data of patent US20050059626A1, “Methods of preventing and treating viral infections using immunomodulatory polynucleotide sequences” (priority 2000, published 2005).

For one experiment, the system named is RSV A2. Briefly: RSV lung titer in cotton rats after local (intranasal) administration. In kind it is in vivo, cotton rat (Sigmoden hispidis). The note with it: for RSV titer (log10/g lung) Mean / RSV titer (log10/g lung) in CR No. 1 / RSV titer (log10/g lung) in CR No. 2 / RSV titer (log10/g lung) in CR No. 3 / RSV titer (log10/g lung) in CR No. 4: non-ISS = SEQ ID NO:9. The protocol: Cotton rats, 50-100 g and 4-12 weeks old (Sigmoden hispidis) of either sex were used in these studies. All of the animals were descendants of two pair of cotton rats obtained in 1984 from the Small Animal Section of the Veterinary Research Branch, Division of Research Services, National Institutes of Health.
RSV strain A2 was purchased from the ATCC (ATCC VR26). Working stocks of this virus were prepared as described in detail by Wyde et al. (1995) Pediatr. Res. 38:543-550. ISS sequence tested for RSV experiments was 5′-[…]-3′ (SEQ ID NO:1) (phosphorothioate). Control, non-ISS sequences used were 5′-[…]-3′ (SEQ ID NO:9) (phosphorothioate) and 5′-[…]-3′ (SEQ ID NO:10) (phosphorothioate), as well as PBS.
RSV levels in virus pools and lung lavage fluids (L.F.) were determined using sterile 96-well, flat bottom tissue culture plates (Falcon 3072), serial 3-fold dilutions and 2% FCS-MEM as described in detail previously (Wyde et al., 1995). […] The amount of virus in virus pools was expressed as a median tissue culture infectious doses (TCID50/ml, log10). Titers of virus in L.F. were expressed as TCID50/g lung tissue (log10). The minimum detectable virus concentration in these assays was 1.3 log10 TCID50/ml (virus pools) or 1.6 log10 TCID50/g lung.
On day −3 (i.e., 3 days before infection with virus), 20 cotton rats (CRs) were selected and divided into five groups of four animals. The animals in Group 1 were lightly anesthetized and 50 μL of phosphate buffered saline (PBS) was administered intranasally (IN). The CRs in Group 2 were similarly administered 150 μg of ISS (5′-[…]-3′) (SEQ ID NO:1), while the animals in Group 3 were similarly administered 150 μg of control non-ISS sequence 5′-[…]-3′ (SEQ ID NO:9). Three days later, on Day 0, each of CRs in Group 4 were anesthetized and 150 μg of ISS was administered IN, and the animals in Group 5 were administered, in a like manner, 150 μg of control non-ISS sequence 5′-[…]-3′ (SEQ ID NO:9).
Thirty minutes later, all of the CRs were inoculated IN with 100 median tissue culture infectious doses (TCID50) of RSV A2. Four days later (Day 4), all of the animals were sacrificed and the lungs of each animal were removed, lavaged, and assessed for RSV levels.

Another experiment has as its system HSV-1. Briefly: Viral titer from Vero cells pre-treated with oligonucleotide, HSV-1. It is filed as cell-based, African Green monkey (Vero cells). The note with it: for Viral titer, percent of control titer: cells infected with HSV-1. The protocol: Vero cells, a cell line derived from African Green monkey kidney, were pre-treated with varying concentrations of ISS or non-ISS oligonucleotides for varying times prior to the addition of HSV-1 or HSV-2. Oligonucleotides were used at 1 μg/ml or 10 μg/ml and the cells were incubated with the oligonucleotides for 30 seconds, 10 minutes or 24 hours. Viral titers were calculated as a percent of control titer generated by cells not treated with the oligonucleotides. The data are expressed as percent of control titer.

For the next experiment, the system named is canine papillomavirus. Briefly: Canine oral papilloma model, time to lesion regression. In kind it is in vivo, Beagle puppies. How it is done:
A model of canine oral papilloma was used to test the efficacy of ISS on papilloma. Beagle puppies were inoculated in the bucal mucosa with canine papillomavirus and developing papilloma lesions were monitored daily. Four groups of seven dogs each were treated with differing amount of ISS oligonucleotide (5′-[…]-3′ (SEQ ID NO:1), phosphorothioate backbone). One group received 50 μg ISS twice a week, another group received 500 μg ISS twice a week, the third group received 500 μg ISS one time only at the first signs of papilloma lesion development (injected within the papilloma lesion) and the fourth group (control group) received PBS twice a week. All dogs were monitored daily for the development of lesions and the time to regression.

In a further experiment the test system is CRPV-E8m. Briefly: Rabbit papilloma model (CRPV-E8m), papilloma geometric mean diameter.
Setting [1] is: 150 μg IN Day 0 (30 min before RSV), lungs Day 4.
The mark [2] stands for this setting: 150 μg IN Day −3, RSV Day 0, lungs Day 4.

Method for CRPV-E8m: In another experiment, a mutant of CRPV which induces small papillomas, CRPV-E8m, was used to induce papillomas on five rabbit treatment groups (five rabbits per group). In each animal, papillomas on the left side of the animal received treatments and papillomas on the right side were untreated. Four of the treatment groups received doses between 100 μg and 2000 μg of ISS as intradermal injections per papilloma at several treatment regimes and the fifth group received injections of PBS as control, as outlined below.
Four papillomas, initiated with CRPV-E8m plasmid DNA, were established on each rabbit. Skin at the site of papilloma initiation was made hyperplastic using a mixture of turpentine and acetone prior to viral DNA administration. The size of papillomas was measured (three dimensions, in mm) and the GMD calculated for each papilloma.

In the case of “5′-TGACTGTGAACGTTCGAGATGA-3′ [SEQ ID NO: 1]”, the “RSV titer (log10/g lung) Mean” value with RSV A2 (setting [1]) was 3.9 log10/g lung; in the experiment with RSV A2 (setting [2]), 2.8 log10/g lung. The “RSV titer (log10/g lung) in CR No. 1” value amounted to 4 log10/g lung in the experiment on RSV A2 (setting [1]) and 3 log10/g lung with RSV A2 (setting [2]). The “RSV titer (log10/g lung) in CR No. 2” value with RSV A2 (setting [1]) worked out at 4 log10/g lung; in the experiment on RSV A2 (setting [2]), 3 log10/g lung. The “RSV titer (log10/g lung) in CR No. 3” value is 4.5 log10/g lung with RSV A2 (setting [1]) and 2.5 log10/g lung with RSV A2 (setting [2]). The “RSV titer (log10/g lung) in CR No. 4” value in the experiment with RSV A2 (setting [1]) is 3 log10/g lung; with RSV A2 (setting [2]) it was 2.5 log10/g lung. Moreover, the “Effect on RSV viral titer in infected tissue” value in the experiment on RSV A2 (IN administration 3 days before infection) is listed as “effective at reducing viral titers”; with RSV A2 (first IN administration on the day of infection), “not effective”. Moreover, the “Effect on viral titers from infected cells” value in the experiment with HSV-1 (cells incubated with ISS prior to HSV infection in vitro (HSV-1 and HSV-2, Table 12)) is “no effect on the viral titers”. In addition, the “Viral titer, percent of control titer” value with HSV-1 (cells pre-treated 1 μg/ml, 30 sec) is 98% of control titer; in the experiment on HSV-1 (cells pre-treated 1 μg/ml, 10 min) it was 96% of control titer; with HSV-1 (cells pre-treated 1 μg/ml, 24 hr), 89% of control titer; with HSV-1 (cells pre-treated 10 μg/ml, 30 sec) it was 100% of control titer; in the experiment on HSV-1 (cells pre-treated 10 μg/ml, 10 min), 102% of control titer; in the experiment on HSV-1 (cells pre-treated 10 μg/ml, 24 hr), 82% of control titer. The “Average rate of lesion regression” value in the experiment with canine papillomavirus (500 μg one time at first signs of papilloma lesion) is “higher average rate of lesion regression than untreated dogs”. Moreover, the “Average time for rapid regression” value in the experiment with canine papillomavirus (500 μg one time at first signs of papilloma, injected within the lesion) is given as 25.1 days. Moreover, in the experiment with canine papillomavirus (other treatment groups: 50 μg or 500 μg twice a week), the Regression time result is “did not show a marked difference in regression time”. Besides, the “Size of papillomas (GMD), treated versus untreated” value in the experiment with CRPV-E8m (Treatment Group C: 500 μg/injection, 1 time/week days 47-86, intradermal) is reported as “reduction in the size of the ISS treated papillomas compared to untreated papillomas”. Besides, in the experiment on CRPV-E8m (Treatment Groups A, B, D (100 μg 3x/week; 100 μg 1x/week; 2000 μg weeks 7 and 10), intradermal), the “Papilloma growth rates, treated versus untreated papillomas” value was “Minimal differences”.
